{"source": "patent US9648876B2", "about": "“Method of inhibiting biofilm formation” (Research Foundation of the City University of New York, priority 2015, dated 2017)", "key": {"[1]": {"tested_on": "C. albicans mature biofilms", "test": "Established (mature, 24-h) biofilm susceptibility (XTT reduction, LIVE/DEAD confocal microscopy)", "experimental": "LIVE/DEAD staining of the biofilm was performed and dead cells were quantified in confocal micrographs.\n(§1) Candida albicans was subcultured onto Sabouraud dextrose agar (per liter: peptone 10 g, dextrose 40 g, agar 15 g; pH of 5.6) and incubated at 30° C. for 24 h. One colony was then added to yeast extract-peptone-dextrose (YPD; 1% yeast extract, 2% peptone, 2% dextrose) and incubated with shaking at 30° C. and 170 rpm for 16 h, after which cells were harvested, washed in phosphate-buffered saline (PBS), and diluted to a standard inoculum of 1.0×10^6 cells per ml.\n(§2) For biofilm assays in microtiter plates, 100 μl of a standard inoculum of C. albicans cells (1.0×10^6 cells per ml) was added to the wells of a 96-well plate in triplicate, and the cells were allowed to adhere for 90 min at 37° C. After incubation, the plates were washed twice with PBS to remove nonattached cells. Then 100 μl of RPMI 1640 with L-glutamine, without sodium bicarbonate (GIBCO®), buffered to pH 7.0 with 165 mM morpholinepropanesulfonic acid (MOPS) was added to each well, and the plates were incubated at 37° C. for 24 h. Early-stage biofilms were prepared essentially as above, with the exception that the cells were induced to form biofilms for either 3 or 6 h prior to treatment.\nFluconazole was obtained from Sigma. All drugs were dissolved in dimethyl sulfoxide (DMSO).\nMenadione and XTT [2,3-bis-(2-methoxy-4-nitro-5-sulfophenyl)-2H-tetrazolium-5-carboxyanilide] were obtained from Sigma-Aldrich. After a drug challenge, the wells were washed twice with PBS, and then 100 μl of XTT-menadione solution was added to the wells, and plates incubated in the dark for 1 h at 37° C. The absorbance of wells at 490 nm was read using a microplate reader (Biotec/Synergy software).\nCandida albicans biofilms were treated with or without test compounds for various times, depending on the experimental design, after which the cells were prepared for microscopy by staining with the BacLight yeast viability kit, the contents of which include Syto-9 and propidium iodide (Molecular Probes, Eugene, Oreg.) according to the manufacturer's instructions. Confocal images were obtained using an Olympus FluoView10i microscope and a filter set for Syto-9 and propidium iodide. Overlays included phase contrast images. All confocal images were processed using ImageJ.\nBiofilm viability was assayed by XTT reduction and calculated as follows:\n[formula] where background wells contained XTT solution only; untreated wells received cells only, with no added drug."}, "[2]": {"tested_on": "C. albicans early biofilms", "assay_type": "cell-based, Candida albicans", "details": "fluconazole at 32 μg per ml, FIG. 3", "experimental": "as §1\nas §2, with “Early-stage biofilms were prepared essentially as above, with the exception that the cells were induced to form biofilms for either 3 or 6 h prior to treatment.” left out\nMenadione and XTT [2,3-bis-(2-methoxy-4-nitro-5-sulfophenyl)-2H-tetrazolium-5-carboxyanilide] were obtained from Sigma-Aldrich. […] The absorbance of wells at 490 nm was read using a microplate reader (Biotec/Synergy software). […]\nBiofilm viability was assayed by XTT reduction and calculated as follows: […]"}, "[3]": {"tested_on": "C. albicans DAY185 planktonic cells", "test": "Planktonic cell growth and viability", "assay_type": "cell-based, Candida albicans", "details": "0.06 μg per ml", "experimental": "Small arrows (FIG. 1B and FIG. 1C) denote chains of yeast cells. Note the microcolonies apparent in the control culture at 3 hours (FIG. 2B) and 9 hours (FIG. 2C) denoted by the large arrows. […] Under these conditions, some yeast cells formed short linear chains, but there were few germ tubes, and the culture never developed true hyphae. […] When germ tubes were allowed to emerge before treatment with xanthochymol, the germ tubes elongated and branched for several hours. In contrast, when C. albicans DAY185 planktonic cells were grown in YPD in the presence or absence of either Garcinia benzophenone (70 μg per ml), there was no significant effect on the growth or viability."}, "pCAF": {"target": "pCAF (Homo sapiens, UniProt Q92831)", "sequence (Q92831 whole entry, species assumed)": "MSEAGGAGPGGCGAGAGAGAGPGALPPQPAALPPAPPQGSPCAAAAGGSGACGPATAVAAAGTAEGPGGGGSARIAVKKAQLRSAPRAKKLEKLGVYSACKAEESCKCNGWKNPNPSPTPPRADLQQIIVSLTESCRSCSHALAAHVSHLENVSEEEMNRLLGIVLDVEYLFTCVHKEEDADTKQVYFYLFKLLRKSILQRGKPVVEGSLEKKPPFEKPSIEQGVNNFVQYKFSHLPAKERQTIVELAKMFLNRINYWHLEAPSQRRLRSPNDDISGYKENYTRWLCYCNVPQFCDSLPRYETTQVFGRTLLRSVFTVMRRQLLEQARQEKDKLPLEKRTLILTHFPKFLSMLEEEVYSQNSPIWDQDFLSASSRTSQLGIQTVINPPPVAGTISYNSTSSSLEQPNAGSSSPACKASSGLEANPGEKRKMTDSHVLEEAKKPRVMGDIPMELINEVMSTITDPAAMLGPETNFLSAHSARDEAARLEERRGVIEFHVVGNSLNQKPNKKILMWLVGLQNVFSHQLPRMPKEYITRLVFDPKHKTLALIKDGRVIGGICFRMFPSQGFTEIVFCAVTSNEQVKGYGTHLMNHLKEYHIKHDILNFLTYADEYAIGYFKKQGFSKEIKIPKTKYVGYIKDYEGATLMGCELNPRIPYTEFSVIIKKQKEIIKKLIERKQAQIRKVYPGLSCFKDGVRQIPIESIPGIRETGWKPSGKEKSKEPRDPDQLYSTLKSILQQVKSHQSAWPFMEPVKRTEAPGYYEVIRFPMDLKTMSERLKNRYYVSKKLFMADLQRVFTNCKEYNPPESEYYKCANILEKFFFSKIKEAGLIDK", "details": "cited from earlier work"}, "[4]": {"target": "histone acetyltransferase (HAT) p300 (Homo sapiens, UniProt Q09472)", "sequence (Q09472 whole entry)": "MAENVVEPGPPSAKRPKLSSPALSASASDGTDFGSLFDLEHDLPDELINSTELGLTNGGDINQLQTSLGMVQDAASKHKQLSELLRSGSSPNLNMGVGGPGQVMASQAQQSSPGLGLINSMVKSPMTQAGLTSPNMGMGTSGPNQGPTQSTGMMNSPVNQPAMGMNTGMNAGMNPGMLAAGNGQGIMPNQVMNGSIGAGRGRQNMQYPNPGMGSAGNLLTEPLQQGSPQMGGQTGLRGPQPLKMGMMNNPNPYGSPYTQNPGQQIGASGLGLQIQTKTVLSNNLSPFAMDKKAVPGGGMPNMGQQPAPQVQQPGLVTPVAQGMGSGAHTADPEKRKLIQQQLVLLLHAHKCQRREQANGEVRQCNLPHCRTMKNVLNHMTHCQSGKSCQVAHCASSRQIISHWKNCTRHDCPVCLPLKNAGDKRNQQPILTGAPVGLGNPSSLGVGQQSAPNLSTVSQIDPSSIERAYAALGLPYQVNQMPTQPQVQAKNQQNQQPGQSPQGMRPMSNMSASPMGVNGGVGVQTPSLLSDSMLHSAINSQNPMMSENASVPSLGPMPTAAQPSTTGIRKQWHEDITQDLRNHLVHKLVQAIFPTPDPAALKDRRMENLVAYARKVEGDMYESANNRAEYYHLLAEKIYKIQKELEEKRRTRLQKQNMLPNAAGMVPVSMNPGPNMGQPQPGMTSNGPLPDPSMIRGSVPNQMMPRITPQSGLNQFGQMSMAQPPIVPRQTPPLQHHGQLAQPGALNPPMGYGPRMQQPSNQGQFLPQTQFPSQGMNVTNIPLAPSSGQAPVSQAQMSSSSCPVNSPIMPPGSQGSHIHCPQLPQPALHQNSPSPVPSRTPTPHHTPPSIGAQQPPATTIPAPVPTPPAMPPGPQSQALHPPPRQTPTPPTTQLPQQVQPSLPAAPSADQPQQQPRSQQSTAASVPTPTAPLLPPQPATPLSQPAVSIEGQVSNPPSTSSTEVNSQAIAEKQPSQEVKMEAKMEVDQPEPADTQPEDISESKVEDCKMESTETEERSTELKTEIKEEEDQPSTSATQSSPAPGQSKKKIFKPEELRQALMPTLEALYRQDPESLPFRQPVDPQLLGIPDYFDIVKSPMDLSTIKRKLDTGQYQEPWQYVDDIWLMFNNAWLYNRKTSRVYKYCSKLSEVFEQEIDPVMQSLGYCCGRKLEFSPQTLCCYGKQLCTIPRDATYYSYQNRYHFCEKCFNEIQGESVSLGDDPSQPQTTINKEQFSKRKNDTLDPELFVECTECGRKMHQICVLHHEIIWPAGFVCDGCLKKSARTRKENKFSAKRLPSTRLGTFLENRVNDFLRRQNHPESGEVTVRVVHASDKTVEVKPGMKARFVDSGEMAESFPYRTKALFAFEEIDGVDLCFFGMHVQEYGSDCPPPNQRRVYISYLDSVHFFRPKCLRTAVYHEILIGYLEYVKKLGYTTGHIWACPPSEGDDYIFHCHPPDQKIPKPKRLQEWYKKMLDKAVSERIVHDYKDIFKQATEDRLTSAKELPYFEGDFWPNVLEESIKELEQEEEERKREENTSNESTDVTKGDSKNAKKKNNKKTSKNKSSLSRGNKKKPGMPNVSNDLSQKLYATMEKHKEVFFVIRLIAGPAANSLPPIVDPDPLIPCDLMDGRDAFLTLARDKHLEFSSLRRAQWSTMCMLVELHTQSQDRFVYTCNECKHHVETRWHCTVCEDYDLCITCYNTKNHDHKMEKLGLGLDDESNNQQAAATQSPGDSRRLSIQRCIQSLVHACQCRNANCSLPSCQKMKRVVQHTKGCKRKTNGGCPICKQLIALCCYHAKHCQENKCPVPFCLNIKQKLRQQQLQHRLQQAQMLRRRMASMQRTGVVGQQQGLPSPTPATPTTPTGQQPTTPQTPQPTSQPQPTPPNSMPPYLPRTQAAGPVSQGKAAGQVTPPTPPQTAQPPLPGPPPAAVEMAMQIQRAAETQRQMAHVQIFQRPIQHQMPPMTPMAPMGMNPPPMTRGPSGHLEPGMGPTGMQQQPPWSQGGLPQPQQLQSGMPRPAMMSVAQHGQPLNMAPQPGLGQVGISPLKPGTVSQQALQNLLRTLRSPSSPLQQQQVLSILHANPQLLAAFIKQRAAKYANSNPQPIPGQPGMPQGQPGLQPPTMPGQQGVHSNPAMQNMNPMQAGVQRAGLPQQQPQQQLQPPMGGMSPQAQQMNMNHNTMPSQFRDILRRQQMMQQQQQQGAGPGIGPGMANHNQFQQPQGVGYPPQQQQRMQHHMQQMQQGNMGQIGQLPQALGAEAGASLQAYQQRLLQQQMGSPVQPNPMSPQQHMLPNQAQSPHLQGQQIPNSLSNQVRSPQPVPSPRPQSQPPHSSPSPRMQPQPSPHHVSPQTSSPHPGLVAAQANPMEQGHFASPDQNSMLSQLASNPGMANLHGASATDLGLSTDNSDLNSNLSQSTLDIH", "details": "cited from earlier work"}}, "note": "Where two headings read alike, the source gives them in different places.", "data": [{"smiles": "OC(Cn1cncn1)(Cn1cncn1)c1ccc(F)cc1F", "note": "[fluconazole]", "values": [{"measurement": "killing of biofilm cells by microscopy", "setting": "[1]; 24-h biofilms, 24 h of exposure, confocal LIVE/DEAD", "value": "minimal effect"}, {"measurement": "reduction in viability", "setting": "[1]; 24-h biofilms, fluconazole as high as 1,024 μg per ml, XTT assay", "value": 15, "unit": "%"}, {"measurement": "IC50", "setting": "[1]; Candida albicans, 24 h, read-out: fluconazole IC50", "value": 13, "unit": "µg/mL"}, {"measurement": "EC50", "setting": "[1]; Candida albicans, read-out: fluconazole EC50, mature biofilms, fluconazole alone", "value": "> 1020", "unit": "µg/mL"}, {"measurement": "EC50", "setting": "[1]; Candida albicans, read-out: fluconazole EC50, mature biofilms, with xanthochymol", "value": 13, "unit": "µg/mL"}, {"measurement": "reduction of biofilm activity", "setting": "[2]", "value": 20, "unit": "%"}]}, {"smiles": "CC[C@H](C)C[C@H](C)CCCCCCCCC(=O)N[C@H]1C[C@@H](O)[C@@H](NCCN)NC(=O)[C@@H]2[C@@H](O)CCN2C(=O)[C@H]([C@H](O)CCN)NC(=O)[C@H]([C@H](O)[C@@H](O)c2ccc(O)cc2)NC(=O)[C@@H]2C[C@@H](O)CN2C(=O)[C@H]([C@@H](C)O)NC1=O", "note": "[caspofungin]", "values": [{"measurement": "killing of planktonic yeast phase cells", "setting": "[3]", "value": "showed killing"}, {"measurement": "killing of biofilm (positive control)", "setting": "[1]; 0.06 μg per ml", "value": "less effective against a biofilm"}]}, {"smiles": "C=C(C)CC[C@@H](C[C@@]12C[C@@H](CC=C(C)C)C(C)(C)[C@@](CC=C(C)C)(C(=O)C(C(=O)c3ccc(O)c(O)c3)=C1O)C2=O)C(=C)C", "note": "[garcinol]", "values": [{"measurement": "inhibition of pCAF", "setting": "pCAF", "value": "micromolar concentrations"}, {"measurement": "inhibition of HAT p300", "setting": "[4]", "value": "micromolar concentrations"}]}]}
